Data published in patent US10836789B2, “Inhibitors of glucocorticoid receptor” (ORIC Pharmaceuticals, Inc., priority 2016, dated 2020).

Tests used:
GR = molecular target: T1, GR (Homo sapiens, UniProt P04150); assay: GR luciferase antagonist assay (CHO/GR/MMTV Luciferase cells); assay type: cell-based; settings: 10 nM Dexamethasone final, 16-18 h
T1 construct: expressed in transfected cells; host or cells: CHO cells carrying GR and an MMTV-luciferase reporter
T1 sequence (P04150 1-777): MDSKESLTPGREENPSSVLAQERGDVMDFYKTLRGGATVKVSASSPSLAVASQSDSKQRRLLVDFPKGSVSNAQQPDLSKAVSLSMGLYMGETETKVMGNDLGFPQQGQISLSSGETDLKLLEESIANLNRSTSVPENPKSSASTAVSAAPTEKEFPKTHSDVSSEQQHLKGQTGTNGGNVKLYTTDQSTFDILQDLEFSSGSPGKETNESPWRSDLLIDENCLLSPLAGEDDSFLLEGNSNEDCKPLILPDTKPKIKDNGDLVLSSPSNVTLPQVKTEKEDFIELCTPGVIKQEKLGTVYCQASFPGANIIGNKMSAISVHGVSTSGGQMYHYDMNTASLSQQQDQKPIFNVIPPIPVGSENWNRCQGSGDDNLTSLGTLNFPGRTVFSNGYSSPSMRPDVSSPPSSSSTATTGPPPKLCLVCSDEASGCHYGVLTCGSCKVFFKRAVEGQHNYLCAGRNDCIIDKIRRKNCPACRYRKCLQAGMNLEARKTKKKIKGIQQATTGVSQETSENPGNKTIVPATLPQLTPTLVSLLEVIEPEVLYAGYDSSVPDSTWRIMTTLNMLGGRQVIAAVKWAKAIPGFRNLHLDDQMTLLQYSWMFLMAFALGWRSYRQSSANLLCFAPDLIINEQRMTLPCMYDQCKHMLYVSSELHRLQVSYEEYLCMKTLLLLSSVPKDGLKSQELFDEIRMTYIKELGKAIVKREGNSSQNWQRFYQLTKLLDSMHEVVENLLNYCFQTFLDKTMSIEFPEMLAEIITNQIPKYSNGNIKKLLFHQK
Method: Example A: […] GR Luciferase Assay Cell Line: CHO/GR/MMTV Luciferase Culture Media: DMEM (with phenol red)+10% FBS Assay Media: DMEM (without phenol red)+10% CSS A 1×10 cm plate of cells was split into 2×15 cm plates in Assay Media (CSS). After 4 days, the cells in the Assay Media were collected and counted. Antagonist Assay: 1.5×10^4 cells per well were plated in a 384-well white walled TC plate in 20 ul of Assay Media containing 12.5 nM Dexamethasone (final concentration=10 nM). The plates were covered with film to avoid evaporation and placed in a TC incubator. Media/drug dilutions were prepared in Assay Media in 96-well sterile plates. 100 ul of Assay Media was distributed in aliquots into 96-well plates with an 8-Channel pipette (20-200 ul). 0.5 ul of 1000× concentration of compounds were added to the plates with 8-Channel pipette (0.5-10 ul). The plates were shaken for 15 seconds to mix. The film was removed from the 384-well plates with assay cells. 5 ul of media/drug dilutions were added to appropriate wells. The plates were covered with film to avoid evaporation and placed in a TC incubator overnight. After 16-18 h in the incubator, the plates were removed and sat at room temperature for 10 minutes to equilibrate. The Reagent Dispenser was setup to distribute 25 ul aliquots of OneGlo Luciferase Reagent (at room temperature) to each well of the 384-well plate using standard cassette. After OneGlo was added to the plates, the plates were shaken briefly, then incubated in the dark at room temperature for about 3 minutes. The plates were read using a Tecan or Promega luminometer. The ability of the compounds disclosed herein to inhibit GR activity was quantified and the respective IC50 value was determined. Table 3 provides the cellular IC50 values of various substituted steroidal compounds disclosed herein.

AR = AR agonism assay in LNAR reporter cell line; assay type: cell-based; settings: LNAR cells (overexpressed AR, 4XARE-Luc), 10% CSS, 18-24 hrs; Mifepristone maximum response set to 1
Method: Example B: In Vitro AR Agonism Assay
The AR agonism assay was done in the LNAR reporter cell line which has overexpressed AR and 4XARE-Luc genes. This cell line is sensitive to even minor partial AR agonism activity in hormone-deprived media (CSS). The assays were done in RPMI (without phenol red)+10% CSS using 6000 LNAR cells/well in 384-well plates and compounds were incubated with cells in […] incubator for 18-24 hrs. OneGlo reagent (25 uL/well) was added and plates were read with luminometer within 3 minutes.
To gauge the AR partial agonism activity, Mifepristone is included as a standard in the assay. AR agonism assay results are quantified by determining the ratio of the maximum response of individual compounds to the maximum response of Mifepristone (arbitrarily set to 1). Values of Table 4 are reported as Relative Maximum Response to Mifepristone. This general trend of AR agonism was shown for the class of compounds described herein.

| Compound | IC50 (GR) [nM] | Relative Maximum Response to Mifepristone (AR) |
| --- | --- | --- |
| CC(C)Nc1ccc([C@H]2C[C@@]3(C)[C@@H](CC[C@@]3(O)C#CC3CC3)[C@@H]3CCC4=CC(=O)CC[C@]4(C)[C@H]32)cc1 [Compound 18] | ≤ 100 | A (A: ≤ 0.4) |
| CC#C[C@]1(O)CC[C@H]2[C@@H]3CCC4=CC(=O)CC[C@]4(C)[C@H]3[C@@H](c3ccc(N(C)C(C)C)cc3)C[C@@]21C [Compound 19] | > 100 | A (A: ≤ 0.4) |
| CN1CCN(c2ccc([C@H]3C[C@@]4(C)[C@@H](CC[C@@]4(O)C#CC(C)(C)C)[C@@H]4CCC5=CC(=O)CC[C@@H]5[C@H]43)cc2)CC1 [Compound 20] | ≤ 100 | A (A: ≤ 0.4) |
| CC(C)N(C)c1ccc([C@H]2C[C@@]3(C)[C@@H](CC[C@@]3(O)C#CC3CC3)[C@@H]3CCC4=CC(=O)CC[C@]4(C)[C@H]32)cc1 [Compound 21, (8S,9R,10R,11S,13S,14S,17S)-17-(Cyclopropylethynyl)-17-hydroxy-11-(4-(isopropyl(methyl)amino)phenyl)-10,13-dimethyl-1,2,6,7,8,9,10,11,12,13,14,15,16,17-tetradecahydro-3H-cyclopenta[a]phenanthren-3-one] | ≤ 100 | A (A: ≤ 0.4) |
| CC(C)(C)C#C[C@]1(O)CC[C@H]2[C@@H]3CCC4=CC(=O)CC[C@@H]4[C@H]3[C@@H](c3ccc(N4CCS(=O)(=O)CC4)cc3)C[C@@]21C [Compound 22] | ≤ 100 | A (A: ≤ 0.4) |
| CC(C)(C)C#C[C@]1(O)CC[C@H]2[C@@H]3CCC4=CC(=O)CC[C@@H]4[C@H]3[C@@H](c3ccc(N4CCN(C(=O)OC(C)(C)C)CC4)cc3)C[C@@]21C [Compound 25] | ≤ 100 | A (A: ≤ 0.4) |
| CC#C[C@]1(O)CC[C@H]2[C@@H]3CCC4=CC(=O)CC[C@]4(C)[C@H]3[C@@H](c3ccc(N(C)C)c(F)c3)C[C@@]21C [Compound 32] | > 100 | A (A: ≤ 0.4) |
